# From publication PMC12523843, “Kuwanon A Targeted YWHAB in Hepatocellular Carcinoma Cells to Inhibit the Raf/MEK/ERK Signaling Pathway” (Cells, 2025)
# Key:
# CDK and cyclin proteins = test: Western blot of CDK and cyclin proteins; assay type: cell-based, human; conditions: 48 h, MHCC97 H and SMMC 7721
# Protocol: Cells were harvested using a cell scrape and washed three times with PBS buffer, then lysed on ice in RIPA lysis buffer (Beyotime, Shanghai, China). Protein concentration was determined using a BCA protein assay kit (Beyotime, Shanghai, China). Subsequently, 60 µg of protein was mixed with 5× loading buffer and heated in a 100 °C water bath for 15 min. The samples were subjected to SDS-PAGE electrophoresis, followed by transfer onto a PVDF membrane (Millipore, Darmstadt, Germany). The membrane was blocked with 5% BSA for 2 h at room temperature and incubated sequentially with primary and HRP-conjugated secondary antibodies. Finally, signal detection was performed using an ECL detection system (Clinx, Shanghai, China).
# [1] = test system: MHCC97 H cells labeled with luciferase; test: In vivo imaging of pulmonary metastasis after tail vein injection; set-up: species or system BALB/c-nu mice; conditions: 30 mg/kg intraperitoneal, once every two days, 32 days
# Description: Thirty-six female BALB/c-nu mice, four weeks old (supplied by Slike Jingda Laboratory Animal Co., Ltd., Changsha, China; Animal qualification number: SCXK-2019-0004), were housed in an SPF room. […] Therefore, female mice were selected for this study; 12 mice were used to establish the hepatocellular carcinoma xenografts. MHCC97 H cells (1 × 10^5 cells) were slowly injected into the left lobe of the mouse liver after being anesthetized with isoflurane. Three days later, the mice received intraperitoneal injections of KA (30 mg/kg) every two days for 45 days. Control mice were administered DMSO injections. Recorded the survival status of the animals. Prior to liver collection, the mice were anesthetized with isoflurane to minimize pain and euthanized by cervical dislocation. Ethics approval serial number: IACUC-20240613-03. Animal experiments were conducted in accordance with the Guide for the Care and Use of Laboratory Animals (Ministry of Science and Technology of China, 2006).
# MHCC97 H cells labeled with luciferase (1 × 10^5 cells) were injected into the 4- to 5-week-old female BALB/c-nu mice (SPF grade, average weight 16–18 g) through intravenous injection. Following the injection, luciferase substrate was delivered to the mice via intraperitoneal injection. After a 5-min period of anesthesia with isoflurane, the mice were imaged using an in vivo small animal imaging system. […]
# YWHAB dimer = biological target: T1, YWHAB dimer (Homo sapiens, UniProt P31946); test: Co-immunoprecipitation of MYC-YWHAB and FLAG-YWHAB in HEK 293T; assay type: cell-based; set-up: host or cells: HEK 293T; conditions: 25 μM and 30 μM, HEK 293T overexpressing MYC-YWHAB and FLAG-YWHAB
# T1 sequence (P31946 1-246): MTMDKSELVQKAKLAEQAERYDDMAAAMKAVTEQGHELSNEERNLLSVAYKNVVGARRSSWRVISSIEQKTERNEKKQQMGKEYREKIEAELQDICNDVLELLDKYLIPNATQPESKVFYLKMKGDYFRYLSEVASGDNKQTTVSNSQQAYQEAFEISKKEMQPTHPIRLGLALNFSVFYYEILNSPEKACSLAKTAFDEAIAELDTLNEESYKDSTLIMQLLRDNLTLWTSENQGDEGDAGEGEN
# [2] = test system: MHCC97H and SMMC 7721 cells; test: CCK8 cell viability screen of mulberry active substances; assay type: cell-based, human; conditions: 10 μM, 48 h
# Protocol: The CCK8 assay is used to investigate the effect of compounds on cell viability by measuring the amount of formazan dye. Firstly, 8000 cells were inoculated into each well of the 96-well plate with three replicates per condition. At the same time, add the corresponding mulberry active substances. After 48 h of incubation, 20 μL of the Cell Counting Kit-8 (CCK8) reagent (Beyotime, Shanghai, China) was added to each well. After being cultured under 37 °C and 5% carbon dioxide for 2–3 h, the absorbance was measured at 450 nm.
# [3] = test system: HCC cells (MHCC97 H and SMMC 7721); test: Flow cytometry cell cycle analysis, result stated for HCC cells; assay type: cell-based, human; conditions: 48 h
# Protocol: Cells were digested, centrifuged, and resuspended in PBS buffer following 48 h of treatment with either KA or DMSO. Prior to cell cycle analysis, the cells were fixed in 75% ethanol for a minimum of 24 h, followed by labeling with PI and RNase (Beyotime, Shanghai, China). Subsequently, the cells were analyzed using flow cytometry. Each group consisted of three replicates.
# [4] = test system: HCC cells (MHCC97 H and SMMC 7721); test: Colony formation assay; assay type: cell-based, human
# Protocol: Using a colony formation assay, the effect of KA on the colony-forming ability of HCC cells was evaluated. A total of 1000–2000 cells, along with KA, were seeded into each well of a six-well plate. During this period, fresh culture media and KA were replaced multiple times. After 2 to 3 weeks of incubation, the colonies were stained with crystal violet (Beyotime, Shanghai, China) and subsequently quantified in each well using ImageJ 1.52a software.
# [5] = test system: HCC cells (MHCC97 H and SMMC 7721); test: Transwell migration (without Matrix-Gel) and invasion (with Matrix-Gel) assay; assay type: cell-based, human
# Protocol: The Transwell assay measured the migration and invasion of cells by calculating the number of cells that passed through the material. Prior to the Transwell migration assay, cells were serum-starved in FBS-free culture medium for 24 h. The cells were then detached using trypsin, washed 1–2 times with PBS, and resuspended in DMEM. Approximately 50,000–100,000 cells were seeded into the upper chamber of the Transwell insert. The lower chamber was filled with 600 μL of complete medium containing the test compound. […] After incubation, the migrated cells on the lower membrane surface were fixed with 4% paraformaldehyde (PFA) and stained with 0.1% crystal violet. Non-migrated cells remaining in the upper chamber were carefully removed with a cotton swab. Finally, the stained cells were visualized under a microscope. If matrix gel was needed, it should be added according to the instructions (Beyotime, Shanghai, China) before the cells were seeded.
# SMMC 7721 cells = test: MTT IC50 determination in SMMC 7721; assay type: cell-based; conditions: Homo sapiens, gradient concentrations, 48 h
# Protocol: Cell viability was assessed using MTT experiments. Cells, together with KA, were seeded into 96-well plates at a density of 2000 cells per well with three replicates per condition. DMSO was used as a control. At designated time points, 20 μL of MTT (Sigma, St. Louis, MO, USA) solution was added to each well and incubated for 3 h. After removing the culture medium, 200 μL of DMSO was added to dissolve the formazan crystals. The absorbance was then measured using a microplate reader at a wavelength of 560 nm.
structure (smiles),measurement,setting,value
"CC(C)=CCc1c(-c2ccc(O)c3c2OC(C)(C)C=C3)oc2cc(O)cc(O)c2c1=O [KA, Kuwanon A]",cell cycle-related proteins (Western blot),CDK and cyclin proteins,downregulation of corresponding cell cycle-related proteins
same,pulmonary metastasis (in vivo imaging),[1],significantly inhibited the pulmonary metastasis
same,dimerization levels of YWHAB (co-immunoprecipitation),YWHAB dimer,reduced dimerization levels of YWHAB
same,viability of HCC cells (CCK8),[2],significantly inhibited the viability of HCC cells
same,cell cycle arrest (flow cytometry),[3]; concentration-dependent,significant G0/G1 phase arrest
same,G0/G1 phase arrest under YWHAB overexpression,"[3]; YWHAB-overexpressing cells, KA 15 μM",less KA-induced G0/G1 phase arrest
same,in vitro colony formation ability under YWHAB overexpression,"[4]; YWHAB-overexpressing HCC cells, KA 15 μM",failed to inhibit the in vitro colony formation ability
same,colony formation ability,"[4]; indicated concentrations of KA, vs DMSO",significantly reduced colony formation ability
same,migration/invasion under YWHAB overexpression (wound healing and Transwell),"[5]; YWHAB-overexpressing HCC cells compared to normal tumor cells, KA 15 μM, 48 h",less effect of KA on the migration/invasion
same,invasive capacity of HCC cells (Transwell),[5]; with Matrix-Gel,inhibited the invasive capacity of HCC cells
same,number of HCC cells migrating through the polycarbonate membrane (Transwell),[5]; without Matrix-Gel,significant decrease in the number of HCC cells migrating
same,IC50,SMMC 7721 cells,9.85 µM
